Results taken from patent US9428476B2, “S-imino-S-oxo-iminothiadiazine compounds as BACE inhibitors, compositions, and their use” (Merck Sharp & Dohme Corp., priority 2013, dated 2016).

Legend:
[1] = molecular target: purified human autoBACE-2 (Homo sapiens (Human), UniProt Q9Y5Z0); assay: BACE-2 Assay (BACE-HTRF assay); type: biochemical; conditions: Ki calculated from IC50 using the Cheng-Prusoff equation; QSY7-EISEVNLDAEFC-Eu-amide substrate, pH 5.0; read-out: BACE2 Ki
Description: Inhibitor IC50s at purified human autoBACE-2 are determined in a time-resolved endpoint proteolysis assay that measures hydrolysis of the QSY7-EISEVNLDAEFC-Eu-amide FRET peptide substrate (BACE-HTRF assay). BACE-mediated hydrolysis of this peptide results in an increase in relative fluorescence (RFU) at 620 nm after excitation with 320 nm light Inhibitor compounds, prepared at 3× the desired final concentration in 1×BACE assay buffer (20 mM sodium acetate pH 5.0, 10% glycerol, 0.1% Brij-35) supplemented with 7.5% DMSO are pre-incubated with an equal volume of autoBACE-2 enzyme diluted in 1×BACE assay buffer (final enzyme concentration 1 nM) in black 384-well NUNC plates for 30 minutes at 30° C. […] Following laser excitation of sample wells at 320 nm, the fluorescence signal at 620 nm is collected for 400 ms following a 50 μs delay on a RUBYstar HTRF plate reader (BMG Labtechnologies). […] IC50, are determined by nonlinear regression analysis (sigmoidal dose response, variable slope) of percent inhibition data with minimum and maximum values set to 0 and 100 percent respectively. […] The Ki values are calculated from the IC50 using the Cheng-Prusoff equation.

[2] = molecular target: soluble human BACE1 catalytic domain (Homo sapiens (Human), UniProt P56817); assay: BACE1 HTRF FRET Assay; type: biochemical; conditions: Ki calculated from IC50 using the Cheng-Prusoff equation; QSY7-APPswe-Eu substrate, pH 5.0
Sequence of soluble human BACE1 catalytic domain (P56817 75-416): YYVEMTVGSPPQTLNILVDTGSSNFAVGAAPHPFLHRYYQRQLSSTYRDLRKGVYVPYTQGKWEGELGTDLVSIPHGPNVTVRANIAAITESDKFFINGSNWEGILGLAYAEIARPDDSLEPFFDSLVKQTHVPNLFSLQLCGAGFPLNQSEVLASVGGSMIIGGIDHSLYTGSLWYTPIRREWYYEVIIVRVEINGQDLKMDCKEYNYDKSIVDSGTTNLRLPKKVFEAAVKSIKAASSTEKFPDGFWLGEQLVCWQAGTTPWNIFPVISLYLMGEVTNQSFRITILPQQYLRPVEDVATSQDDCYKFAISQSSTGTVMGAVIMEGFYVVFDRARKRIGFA
From the text: Na^+-Acetate pH 5.0; 1% Brij-35; Glycerol; Dimethyl Sulfoxide (DMSO); Recombinant human soluble BACE1 catalytic domain (>95% pure); APP Swedish mutant peptide substrate (QSY7-APP^swe-Eu): QSY7-EISEVNLDAEFC-Europium-amide.
A homogeneous time-resolved FRET assay can be used to determine IC50 values for inhibitors of the soluble human BACE1 catalytic domain. This assay monitors the increase of 620 nm fluorescence that resulted from BACE1 cleavage of an APPswedish APP^swe mutant peptide FRET substrate (QSY7-EISEVNLDAEFC-Europium-amide). This substrate contains an N-terminal QSY7 moiety that serves as a quencher of the C-terminal Europium fluorophore (620 nm Em). In the absence of enzyme activity, 620 nm fluorescence is low in the assay and increased linearly over 3 hours in the presence of uninhibited BACE1 enzyme Inhibition of BACE1 cleavage of the QSY7-APP^swe-Eu substrate by inhibitors is manifested as a suppression of 620 nm fluorescence.
Varying concentrations of inhibitors at 3× the final desired concentration in a volume of 10 ul are preincubated with purified human BACE1 catalytic domain (3 nM in 10 μl) for 30 minutes at 30° C. in reaction buffer containing 20 mM Na-Acetate pH 5.0, 10% glycerol, 0.1% Brij-35 and 7.5% DSMO. […]

Sequence of purified human autoBACE-2 (Q9Y5Z0 63-473 limits assumed): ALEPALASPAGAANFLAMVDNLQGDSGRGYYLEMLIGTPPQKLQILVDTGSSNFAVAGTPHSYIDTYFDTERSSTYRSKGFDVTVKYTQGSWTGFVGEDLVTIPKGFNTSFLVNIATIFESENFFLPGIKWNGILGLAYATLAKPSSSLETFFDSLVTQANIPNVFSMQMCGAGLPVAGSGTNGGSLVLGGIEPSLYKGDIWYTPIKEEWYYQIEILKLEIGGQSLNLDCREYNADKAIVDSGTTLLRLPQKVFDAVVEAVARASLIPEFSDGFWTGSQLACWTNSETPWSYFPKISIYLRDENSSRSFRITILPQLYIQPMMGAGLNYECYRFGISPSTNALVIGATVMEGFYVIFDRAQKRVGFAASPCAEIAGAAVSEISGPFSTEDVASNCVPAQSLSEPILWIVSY

Row | Structure (SMILES) | Ki [1] [nM] | Ki [2] [nM]
1 | CCN=S1(=O)C[C@@](C)(c2cc(NC(=O)c3ccc(Cl)cn3)ccc2F)NC(=N)N1C (stereo partly shown) [Example 5] | 3 | 8
2 | CCN1C(=N)N[C@](C)(c2cc(NC(=O)c3ccc(Cl)cn3)ccc2F)CS1(=O)=NC (stereo partly shown) [Example 6] | 3 | 10
